Laboratory results as given in patent publication US6608086B2, “Dihydropyridines and new uses thereof” (Synaptic Pharmaceutical Corporation, priority 1993, dated 2003).
Structures can show the parent of a compound that is named as a salt. Where two headings read alike, the source gives them in different places.

What was measured:
[1] = biological target: T1, α1B Human Adrenergic Receptor (Homo sapiens, UniProt P35368); assay: Radioligand binding, [3H]prazosin, cloned human α1B adrenergic receptor
T1 construct: The entire coding region of α1B (1563 bp); expressed in transfected cells
T1 sequence (P35368 1-520): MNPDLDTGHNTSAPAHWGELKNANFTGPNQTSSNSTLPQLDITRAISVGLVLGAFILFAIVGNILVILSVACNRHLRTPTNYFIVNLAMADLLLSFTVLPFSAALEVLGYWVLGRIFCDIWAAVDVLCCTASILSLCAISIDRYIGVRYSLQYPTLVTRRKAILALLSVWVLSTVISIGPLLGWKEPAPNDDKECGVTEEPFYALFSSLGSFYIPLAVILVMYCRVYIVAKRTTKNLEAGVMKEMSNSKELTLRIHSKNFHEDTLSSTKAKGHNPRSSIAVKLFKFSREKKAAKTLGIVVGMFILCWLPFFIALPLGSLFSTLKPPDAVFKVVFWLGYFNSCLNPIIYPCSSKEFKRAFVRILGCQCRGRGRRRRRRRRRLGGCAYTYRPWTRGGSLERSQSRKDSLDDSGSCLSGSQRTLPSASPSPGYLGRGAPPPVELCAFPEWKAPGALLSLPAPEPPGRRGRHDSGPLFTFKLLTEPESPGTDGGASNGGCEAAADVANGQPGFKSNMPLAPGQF
How it was run: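 [3H]prazosin (0.5 nM) binding was run for 20 min at 37° C in pH 7.5 Tris/MgCl2/ascorbate buffer on membranes of LM(tk−) cells stably expressing the cloned receptor. Filtration through GF/B ended the reaction; 10 μM phentolamine gave nonspecific binding.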

[2] = biological target: T2, α1C Human Adrenergic Receptor (Homo sapiens, UniProt P35348); assay: Radioligand binding, [3H]prazosin, cloned human α1C adrenergic receptor
T2 construct: The entire coding region of α1C (1401 bp); expressed in transfected cells
T2 sequence (P35348 1-466): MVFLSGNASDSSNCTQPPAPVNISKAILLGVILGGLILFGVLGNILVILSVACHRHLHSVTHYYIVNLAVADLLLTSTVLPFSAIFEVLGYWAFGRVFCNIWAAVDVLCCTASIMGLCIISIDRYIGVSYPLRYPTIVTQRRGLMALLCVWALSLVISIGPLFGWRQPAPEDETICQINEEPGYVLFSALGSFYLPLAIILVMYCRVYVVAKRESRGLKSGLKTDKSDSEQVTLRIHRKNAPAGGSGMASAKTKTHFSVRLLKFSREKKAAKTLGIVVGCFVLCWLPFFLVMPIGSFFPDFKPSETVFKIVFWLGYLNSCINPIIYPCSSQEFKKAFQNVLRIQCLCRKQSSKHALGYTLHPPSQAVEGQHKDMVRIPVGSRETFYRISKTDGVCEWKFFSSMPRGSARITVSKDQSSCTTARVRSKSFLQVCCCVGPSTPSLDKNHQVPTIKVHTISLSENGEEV
How it was run: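 Stably transfected mouse LM(tk−) fibroblast membranes bearing the cloned human α1C adrenoceptor served as receptor source. Specific binding was taken as the portion of 0.5 nM [3H]prazosin displaceable by 10 μM phentolamine after 20 min at 37° C., pH 7.5, in Mg2+/ascorbate-containing Tris buffer.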

α2A receptor = biological target: T3, α2A receptor (Homo sapiens, UniProt P08913); assay: Competition binding, [3H]rauwolscine, human α2A receptor
T3 construct: host or cells: LM(tk-) cells, line L-α2A
T3 sequence (P08913 1-465): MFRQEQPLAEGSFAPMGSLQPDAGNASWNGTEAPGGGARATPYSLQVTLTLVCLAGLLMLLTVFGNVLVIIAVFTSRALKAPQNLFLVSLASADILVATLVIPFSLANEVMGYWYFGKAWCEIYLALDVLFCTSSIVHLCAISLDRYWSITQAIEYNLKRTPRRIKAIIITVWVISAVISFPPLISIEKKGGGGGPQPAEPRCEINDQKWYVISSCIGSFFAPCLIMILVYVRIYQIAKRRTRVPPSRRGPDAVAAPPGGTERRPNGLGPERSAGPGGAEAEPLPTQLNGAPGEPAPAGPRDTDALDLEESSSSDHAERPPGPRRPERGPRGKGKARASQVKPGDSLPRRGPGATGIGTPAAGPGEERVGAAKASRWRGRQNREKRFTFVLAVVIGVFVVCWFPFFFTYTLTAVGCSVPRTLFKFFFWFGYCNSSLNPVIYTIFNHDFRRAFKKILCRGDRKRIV
How it was run: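 Using 25 mM glycylglycine buffer at pH 7.6 (room temperature), membranes from LM(tk−) cells carrying α2A, α2B or α2C were competed against 0.5 nM [3H]rauwolscine to equilibrium. Separation was by GF/B filtration; phentolamine (10 μM) set nonspecific binding.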

[3] = pKi alpha-1 1b, cloned human α1B receptor, LM(tk−) cell membranes
[4] = pKi alpha-1 1c, cloned human α1C receptor, LM(tk−) cell membranes
[5] = [3H]rauwolscine, human α2A receptor, LM(tk−) cells, read-out: pKi alpha-2 2a (converted)
[6] = cloned human receptor in LM(tk-) cell membranes, SEM and n in lines below, read-out: pKi alpha-1 1b (converted)
[7] = cloned human receptor in LM(tk-) cell membranes, SEM and n in lines below, read-out: pKi alpha-1 1c (converted)
[8] = pKi alpha-1 1b, cloned human receptor in LM(tk-) cell membranes, SEM and n in lines below
[9] = pKi alpha-1 1c, cloned human receptor in LM(tk-) cell membranes, SEM and n in lines below
[10] = [3H]rauwolscine, LM(tk-) cell line L-α2A, SEM and n in lines below, read-out: pKi alpha-2 2a (converted)

Structure (SMILES)	Ki [1, 6]	Ki [2, 7]	Ki (α2A receptor)	further results
CCC1=C(C(N)=O)C(c2ccc([N+](=O)[O-])cc2)C(C(=O)NCCCN2CCC(C#N)(c3ccccc3)CC2)=C(CC)N1 (racemic) [(±)-102, 5-Carboxamido-3-{N-[(4-cyano-4-phenylpiperidin-1-ly)propyl]carboxamido-2,6-diethyl-1,4-dihydro-4-(4-nitrophenyl)pyridine hydrochloride hydrate]				Ki [1, 3]: 1620 nM; Ki [2, 4]: 3.8 nM; Ki (α2A receptor; [5]): 2880 nM
CCC1=C(C(N)=O)C(c2ccc([N+](=O)[O-])cc2)C(C(=O)NCCCN2CCC(C#N)(c3ccccc3)CC2)=C(CC)N1 (single isomer, unassigned; (+)) [(+)-102]				Ki [1, 3]: 1230 nM; Ki [2, 4]: 2.63 nM; Ki (α2A receptor; [5]): 3890 nM
CCC1=C(C(N)=O)C(c2ccc([N+](=O)[O-])cc2)C(C(=O)NCCCN2CCC(C#N)(c3ccccc3)CC2)=C(CC)N1 (single isomer, unassigned; (-)) [(−)-102]				Ki [1, 3]: 3160 nM; Ki [2, 4]: 112 nM; Ki (α2A receptor; [5]): 1910 nM
COC(=O)C1=C(C)NC(C)=C(C(=O)NCCCN2CCC(c3ccccc3)(c3ccccc3)CC2)C1c1ccc(C(F)(F)F)cc1 (stereo not drawn) [Example 1]	407 nM	30.2 nM	2400 nM	
CCC1=C(C(=O)NCCCN2CCC(c3ccccc3)(c3ccccc3)CC2)C(c2ccc([N+](=O)[O-])cc2)C(C(=O)OCc2ccccc2)=C(C)N1 (stereo not drawn) [Example 4, 5-Benzyloxycarbonyl-2-ethyl-1,4-dihydro-6-methyl-4-(4-nitrophenyl)-3-(N-(3-(4,4-diphenylpiperidin-1-yl)propyl)carboxamido) pyridine, Hydrochloride Salt, Hydrate]				Ki [1, 8]: 129 nM; Ki [2, 9]: 67.6 nM; Ki (α2A receptor; [10]): 550 nM
COC(=O)C1=C(C)NC(C)=C(C(=O)NCCCN2CCC(c3ccccc3)(c3ccccc3)CC2)C1c1ccncc1 (stereo not drawn) [Example 5, 1,4-Dihydro-5-methoxycarbonyl-2,6-dimethyl-3-(N-(3-(4,4-diphenylpiperidin-1-yl)propyl)carboxamido)-4-(4-pyridyl)pyridine]	832 nM	11.2 nM	2240 nM	
COC(=O)C1=C(C)NC(C)=C(C(=O)NCCCN2CCC(c3ccccc3)(c3ccccc3)CC2)C1C1CCCCC1 (stereo not drawn) [Example 6]	204 nM	148 nM	832 nM	
COC(=O)C1=C(C)NC(C)=C(C(=O)NCCCN2CCC(c3ccccc3)(c3ccccc3)CC2)C1c1ccc(-c2ccccc2)cc1 (stereo not drawn) [Example 7]	288 nM	617 nM	3800 nM	
COC(=O)C1=C(C)NC(C)=C(C(=O)NCCCN2CCC(c3ccccc3)(c3ccccc3)CC2)C1Cc1ccccc1 (stereo not drawn) [Example 8, 4-Benzyl-1,4-dihydro-3-methoxycarbonyl-2,6-dimethyl-5-(N-(3-(4,4-diphenylpiperidin-1-yl)propyl)carboxamido)pyridine]				Ki [1, 8]: 186 nM; Ki [2, 9]: 75.9 nM; Ki (α2A receptor; [10]): 832 nM
COC(=O)C1=C(C)NC(C)=C(C(=O)NCCCN2CCC(c3ccccc3)(c3ccccc3)CC2)C1c1cc[n+]([O-])cc1 (stereo not drawn) [Example 9, 1,4-Dihydro-3-methoxycarbonyl-2,6-Dimethyl-4-(1-oxido-4-pyridyl)-5-(N-(3-(4,4-diphenylpiperidin-1-yl)propyl)carboxamido)pyridine]				Ki [1, 8]: 339 nM; Ki [2, 9]: 24 nM; Ki (α2A receptor; [10]): 2190 nM
COC(=O)C1=C(C)NC(C)=C(C(=O)NCCCN2CCC(c3ccccc3)(c3ccccc3)CC2)C1c1ccc(Cl)cc1 (stereo not drawn) [Example 10, 4-(4-Chlorophenyl)-1,4-dihydro-5-methoxycarbonyl-2,6-Dimethyl-5-(N-(3-(4,4-diphenylpiperidin-1-yl)propyl)carboxamido)pyridine]	123 nM	1.78 nM	2340 nM	
COC(=O)C1=C(C)NC(C)=C(C(=O)NCCCN2CCC(c3ccccc3)(c3ccccc3)CC2)C1c1ccc2c(c1)OCO2 (stereo not drawn) [Example 11, 1,4-Dihydro-3-methoxycarbonyl-2,6-dimethyl-4-(3,4-methylenedioxyphenyl)-5-(N-(3-(4,4-diphenylpiperidin-1-yl)propyl)carboxamido)pyridine]	229 nM	1.12 nM	1120 nM	
COC(=O)C1=C(C)NC(C)=C(C(=O)NCCCN2CCC(c3ccccc3)(c3ccccc3)CC2)C1c1ccc(C#N)cc1 (stereo not drawn) [Example 12, 4-(4-Cyanophenyl)-1,4-dihydro-3-methoxycarbonyl-2,6-dimethyl-5-(N-(3-(4,4-diphenylpiperidin-1-yl)propyl)carboxamido)pyridine]	151 nM	1.82 nM	776 nM	
COC(=O)C1=C(C)NC(C)=C(C(=O)NCCCN2CCC(c3ccccc3)(c3ccccc3)CC2)C1c1ccc(I)cc1 (stereo not drawn) [Example 13, 1,4-Dihydro-4-(4-iodophenyl)-3-methoxycarbonyl-2,6-dimethyl-5-(N-(3-(4,4-diphenylpiperidin-1-yl)propyl)carboxamido)pyridine]	166 nM	7.24 nM	1260 nM	
COC(=O)C1=C(C)NC(C)=C(C(=O)NCCCN2CCC(c3ccccc3)(c3ccccc3)CC2)C1c1cccnc1 (stereo not drawn) [Example 14, 1,4-Dihydro-3-methoxycarbonyl-2.6-dimethyl-5-(N-(3-(4,4-diphenylpiperidin-1-yl)propyl)carboxamido)-4-(3-pyridyl)pyridine]				Ki [1, 8]: 2630 nM; Ki [2, 9]: 40.7 nM; Ki (α2A receptor; [10]): 2880 nM
COC(=O)C1=C(C)NC(C)=C(C(=O)NCCCN2CCC(c3ccccc3)(c3ccccc3)CC2)C1c1ccc(Br)cc1 (stereo not drawn) [Example 15, 4-(4-Bromophenyl)-1,4-dihydro-3-methoxycarbonyl-2,6-dimethyl-5-(N-(3-(4,4-diphenylpiperidin-1-yl)propyl)carboxamido)pyridine]	166 nM	6.31 nM	2450 nM	
COC(=O)C1=C(C)NC(C)=C(C(=O)NCCCN2CCC(c3ccccc3)(c3ccccc3)CC2)C1c1ccc(Cl)c([N+](=O)[O-])c1 (stereo not drawn) [Example 16, 4-(4-Chloro-3-nitrophenyl)-1,4-dihydro-3-methoxycarbonyl-2,6-dimethyl-5-(N-(3-(4,4-diphenylpiperidin-1-yl)propyl)carboxamido)pyridine]	174 nM	5.89 nM	1120 nM	
COC(=O)C1=C(C)NC(C)=C(C(=O)NCCCN2CCC(c3ccccc3)(c3ccccc3)CC2)C1c1ccc(C(C)C)cc1 (stereo not drawn) [Example 18, 1,4-Dihydro-4-(4-isopropylphenyl)-3-methoxycarbonyl-2,6-dimethyl-5-(N-(3-(4,4-diphenylpiperidin-1-yl)propyl)carboxamido)pyridine]	174 nM	69.2 nM	2140 nM	
